For one experiment, the system named is Tetranychus kanzawai. Kind of experiment: Efficacy test against Tetranychus kanzawai (spray on mung beans). It is filed as in vivo. The settings on record: 125 ppm by mass, sprayed on mung beans; female adults; 25° C., humidity 65%; 10 days after spraying.
A further experiment has as its system Tetranychus urticae. Briefly: Efficacy test against Tetranychus urticae (spray on common beans). It is filed as in vivo. The conditions noted are these: 125 ppm by mass, sprayed on common beans; female adults; 25° C., humidity 65%; 10 days after spraying.

SMILES strings stand for the structures.

As to `CSCC1CCN(C(=O)c2cc(C#N)c(-c3ccc(C(F)(F)F)cc3)nc2C)CC1` [a-90], the acaricidal rate result in the experiment with Tetranychus kanzawai and with Tetranychus urticae was “a-90%” in each case. In the case of `CCSCC1CCN(C(=O)c2cc(C#N)c(-c3ccc(C(F)(F)F)cc3)nc2CSC)CC1` [a-190], the acaricidal rate entry in the experiment with Tetranychus urticae is recorded as “a-190%”.

With `CCSCC1CCN(C(=O)c2cc(C(N)=S)c(-c3ccc(C(F)(F)F)cc3)nc2C(F)(F)C(F)(F)F)CC1` [b-90], the acaricidal rate result in the experiment on Tetranychus urticae was “b-90%”.
